Measurements taken from publication PMC11912224, “A general approach for activity-based protein profiling of oxidoreductases with redox-differentiated diarylhalonium warheads” (Chemical Science, 2025).

Key:
[1] = molecular target: T1, heme oxygenase 2 (HMOX2) (Mus musculus, UniProt O70252); assay: covalent labelling, streptavidin enrichment, LC-MS/MS; conditions: 30 uM probe, 1 h, mouse liver pieces
T1 construct: native, in intact mouse liver pieces
T1 sequence (O70252 2-315): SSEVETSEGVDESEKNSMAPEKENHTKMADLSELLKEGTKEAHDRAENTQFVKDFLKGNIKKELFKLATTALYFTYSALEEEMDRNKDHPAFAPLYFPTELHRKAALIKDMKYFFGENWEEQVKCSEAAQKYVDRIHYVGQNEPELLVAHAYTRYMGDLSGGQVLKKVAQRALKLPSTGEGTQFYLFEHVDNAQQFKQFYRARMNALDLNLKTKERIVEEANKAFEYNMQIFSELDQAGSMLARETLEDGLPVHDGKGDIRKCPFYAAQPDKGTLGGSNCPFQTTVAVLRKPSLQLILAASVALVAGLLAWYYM

[2] = molecular target: T2, retinol dehydrogenase RDH16 (Mus musculus, UniProt O54909); assay: as above; conditions: 30 uM probe, 1 h, mouse liver pieces
T2 construct: native, in intact mouse liver pieces
T2 sequence (O54909 1-317): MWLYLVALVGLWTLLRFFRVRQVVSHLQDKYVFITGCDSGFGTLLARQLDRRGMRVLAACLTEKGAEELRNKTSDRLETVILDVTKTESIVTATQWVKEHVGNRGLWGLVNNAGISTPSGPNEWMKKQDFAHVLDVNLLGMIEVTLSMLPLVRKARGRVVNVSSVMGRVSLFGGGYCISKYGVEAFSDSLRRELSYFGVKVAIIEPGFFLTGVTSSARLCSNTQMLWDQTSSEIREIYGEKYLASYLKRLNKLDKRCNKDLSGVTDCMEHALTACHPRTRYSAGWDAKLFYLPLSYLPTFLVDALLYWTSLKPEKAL

[3] = molecular target: T3, EUOX (eugenol oxidase) (Rhodococcus jostii, UniProt Q0SBK1); assay: activity-based labelling, in-gel fluorescence; type: binding; conditions: covalent; 30 uM probe, 1 h
T3 construct: gene RHA1_ro03282; recombinant; FAD enzyme; details not in main text
T3 sequence (Q0SBK1 1-526): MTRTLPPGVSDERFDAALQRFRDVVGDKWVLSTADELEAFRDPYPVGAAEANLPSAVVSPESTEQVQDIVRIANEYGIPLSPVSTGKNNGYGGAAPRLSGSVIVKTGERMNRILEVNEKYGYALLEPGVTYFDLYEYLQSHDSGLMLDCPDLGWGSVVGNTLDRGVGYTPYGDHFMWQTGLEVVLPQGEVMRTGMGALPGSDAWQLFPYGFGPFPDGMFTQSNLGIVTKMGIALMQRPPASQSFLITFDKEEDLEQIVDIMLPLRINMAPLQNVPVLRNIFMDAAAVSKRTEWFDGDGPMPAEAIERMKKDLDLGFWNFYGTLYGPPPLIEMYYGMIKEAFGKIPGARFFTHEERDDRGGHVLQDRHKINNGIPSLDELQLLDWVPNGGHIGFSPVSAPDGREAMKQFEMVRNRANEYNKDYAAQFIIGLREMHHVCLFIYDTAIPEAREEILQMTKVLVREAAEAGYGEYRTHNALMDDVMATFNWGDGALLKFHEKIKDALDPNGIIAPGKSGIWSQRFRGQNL

[4] = molecular target: T4, retinol dehydrogenase RDH7 (Mus musculus, UniProt O88451); assay: covalent labelling, streptavidin enrichment, LC-MS/MS; conditions: 30 uM probe, 1 h, mouse liver pieces
T4 construct: native, in intact mouse liver pieces
T4 sequence (O88451 1-316): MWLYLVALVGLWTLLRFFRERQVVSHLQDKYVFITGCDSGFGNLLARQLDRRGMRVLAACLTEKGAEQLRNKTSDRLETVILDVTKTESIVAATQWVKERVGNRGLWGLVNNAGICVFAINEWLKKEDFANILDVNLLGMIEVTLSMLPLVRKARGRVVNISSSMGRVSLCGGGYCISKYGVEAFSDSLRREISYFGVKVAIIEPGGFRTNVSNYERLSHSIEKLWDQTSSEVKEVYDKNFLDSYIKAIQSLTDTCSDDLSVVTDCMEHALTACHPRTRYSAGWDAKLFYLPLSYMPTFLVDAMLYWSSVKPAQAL

[5] = molecular target: T5, ALDH2 (aldehyde dehydrogenase 2, recombinant human) (Homo sapiens, UniProt P05091); assay: activity-based labelling, in-gel fluorescence; type: binding; conditions: covalent; 30 uM probe, 1 h
T5 construct: recombinant
T5 sequence (P05091 18-517): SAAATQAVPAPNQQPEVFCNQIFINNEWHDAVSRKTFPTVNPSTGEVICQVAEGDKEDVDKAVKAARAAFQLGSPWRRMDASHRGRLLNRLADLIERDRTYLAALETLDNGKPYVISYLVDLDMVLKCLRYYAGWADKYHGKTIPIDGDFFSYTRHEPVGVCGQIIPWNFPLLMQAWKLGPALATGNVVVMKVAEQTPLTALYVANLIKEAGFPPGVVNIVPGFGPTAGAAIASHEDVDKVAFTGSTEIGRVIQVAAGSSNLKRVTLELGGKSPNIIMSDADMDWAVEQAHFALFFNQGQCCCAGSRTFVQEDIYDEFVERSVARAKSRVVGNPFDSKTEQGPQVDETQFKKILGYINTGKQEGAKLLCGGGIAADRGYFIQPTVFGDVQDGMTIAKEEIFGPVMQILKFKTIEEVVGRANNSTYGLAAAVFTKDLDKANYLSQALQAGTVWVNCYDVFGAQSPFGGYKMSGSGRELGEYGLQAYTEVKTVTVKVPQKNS

[6] = molecular target: T6, CHO (choline oxidase) (Glutamicibacter nicotianae, UniProt A0ABQ0RMK5); assay: activity-based labelling, in-gel fluorescence; type: binding; conditions: covalent; 30 uM probe, 1 h
T6 construct: gene ANI01nite_22550; recombinant; FAD enzyme; details not in main text
T6 sequence (A0ABQ0RMK5 1-523): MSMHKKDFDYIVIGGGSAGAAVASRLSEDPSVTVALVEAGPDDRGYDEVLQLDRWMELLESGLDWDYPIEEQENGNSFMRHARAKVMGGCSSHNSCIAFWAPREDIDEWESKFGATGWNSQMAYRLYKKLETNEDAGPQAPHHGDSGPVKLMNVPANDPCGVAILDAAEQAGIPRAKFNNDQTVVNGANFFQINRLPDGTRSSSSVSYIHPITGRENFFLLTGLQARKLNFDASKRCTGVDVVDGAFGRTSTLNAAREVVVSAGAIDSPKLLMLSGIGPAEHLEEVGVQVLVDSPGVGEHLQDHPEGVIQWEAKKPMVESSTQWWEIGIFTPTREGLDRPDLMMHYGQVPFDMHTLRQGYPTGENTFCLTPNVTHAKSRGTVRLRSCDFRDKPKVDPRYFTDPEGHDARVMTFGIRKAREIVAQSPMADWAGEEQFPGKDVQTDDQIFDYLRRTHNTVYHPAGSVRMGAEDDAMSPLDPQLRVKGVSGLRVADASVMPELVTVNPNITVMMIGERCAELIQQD

For `[N-]=[N+]=NCCCCCCCCCCNC(=O)c1ccc([I+]c2ccccc2)cc1` [3aa, diphenyliodonium probe 3aa], the “covalent labelling, streptavidin enrichment, LC-MS/MS” value (shortened to “covalent labelling”) [1] was “HMOX2 was significantly enriched by diaryliodonium probes 3aa, 3ca, and 3da”, the “covalent labelling” value [2] was “RDH7 and RDH16 were found to be labeled by probe 3aa very well” and the “activity-based labelling, in-gel fluorescence” value (from here on “activity-based labelling”) [3] was “led to the labeling of several of the tested oxidoreductases”. For the same compound, the “covalent labelling” value [4] was “RDH7 and RDH16 were found to be labeled by probe 3aa very well”, the “activity-based labelling” value [5] was “led to the labeling of several of the tested oxidoreductases” and the “activity-based labelling” value [6] was “led to the labeling of several of the tested oxidoreductases”.
